Reference: patent publication US4425356A, “Lankacidin derivatives used in swine husbandry” (Takeda Chemical Industries, Ltd., priority 1980, dated 1984)
In brackets after ≈: the same amount, converted by molar mass. Read-outs that look alike come from different tables or passages of the source.

Legend:
Treponema hyodysenteriae [1] = assay: in vitro antibacterial activity (MIC, agar dilution method), Test Examples 1-3; type: cell-based; details: Brachyspira hyodysenteriae, 48 h, 37° C., 2 days, anaerobic
Description: Several agents were tested for in vitro antibacterial activity against Treponema hyodysenteriae, the pathogenic bacteria causing swine dysentery, by the method of testing drug sensitivity of Treponema hyodysenteriae (Kashiwazaki et al. Abstracts of Papers presented at the 82nd Meeting of the Japanese Society of Veterinary Science, page 101, 1976).
(1) Strains: These strains belong to Treponema hyodysenteriae isolated
from the bloody mucous faeces of dysenteric pigs in Japan.
(2) Antimicrobial activity assay: Agar dilution method
(3) Inoculum size: A loopful of bacterial suspension (10^6 CFU/ml)
(4) Cultural conditions: GasPak anaerobic system (BBL), 37° C., 2
Typical agents among compound (I) were tested for in vitro antibacterial activity by the same method as in Test Example 1.
The experimental conditions are the same as in Test Example 1 (Table 1).
Agents of compound (I) were tested for in vitro antibacterial activity by the same method as in Test Example 1.

Treponema hyodysenteriae [2] = assay: efficacy in experimental infection in mice with swine dysentery, Test Example 4; type: in vivo; details: 5 mg/kg/day oral, day 1 to day 4; seven days after infection
Description: Lankacidin A, lankacidin C, lankacidin C 8-acetate, lankacidin C 14-propionate, lankacidinol A and lankacidinol were tested for efficacy against swine dysentery in experimental infection in mice with swine dysentery.
The similar experimental infection model of swine dysentery in mice as that described, for example, by Joens et al. in Infection and Immunity, 25, 757-760 (1979), American Journal of Veterinary Research, 41, 1225-1226 (1980) and Veterinary Record, 107, 527-529 (1980) was used. Thus, a field isolate of Treponema hyodysenteriae anaerobically cultivated on the 5% defibrinated horse blood added Trypticase soy agar (BBL) plate was mashed together with the culture medium and diluted two-fold with Trypticase soy broth (BBL). Mice were inoculated intragastrically with this infecting dilution. Each test agent was suspended in 5% gum arabic solution and forcibly administered orally from day 1 to day 4 following infection. Seven days after infection, the cecum was examined for lesions, and the cecum was mashed together with the contents and subjected to Treponema hyodysenteriae counting. Excellent efficacy was produced in each of the drug-administered groups.

[3] = acute toxicity tests with mice; details: mouse, in vivo
Text: The toxicity of compound (I) in animals is very low.

[4] = tested on: Treponema hyodysenteriae 78/A strain; assay: efficacy against swine dysentery under experimental infection conditions in pigs (drug in feed), Test Examples 5-7; type: in vivo, Landrace pigs
Description: Lankacidin C was tested for efficacy against swine dysentery under experimental infection conditions. Thus, twelve 6-week-old Landrace pigs (4 per group) were used. The test drug was admixed to a concentration of 100 ppm with the domestically formulated starter feed for young pigs without antibiotics. The animals were provided with the ration ad libitum. Infection of the pigs was effected by direct intragastrical administration to the SPF pigs of an inoculum prepared by preliminary anaerobic cultivation of the Treponema hyodysenteriae 78/A strain on a 5% horse blood added agar plate, mashing together with the culture medium and admixing with 5% mucin added phosphate buffer. Colonic contents and mucosa were collected from pigs which developed typical signs of swine dysentery, and diluted two-fold with 5% mucin added phosphate buffer. The dilution was used as the final inoculum, and 100 ml of the dilution was directly injected into the stomach of test pigs at the age of 7 weeks (fasted for 24 hours before infection). The pigs were fed for 21 days following infection.
The data are each the mean value per head for the 21day period from
infection to autopsy. Different alphabetic letters on the same line
indicate that there is a significant difference between the data to which
they are attached (P <0.05).
Lankacidin C was tested at concentrations in feed of 100 ppm and lower by the same method as in Test Example 5, with carbadox, a commonly used anti-swine-dysentery agent, for comparison.
The anti-swine-dysentery effects of 10 ppm each of lankacidin A and lankacidin C 14-propionate were examined by the procedure of Test Example 6.

[5] = tested on: Treponema hyodysenteriae 78/A strain; assay: therapeutic administration in pigs showing clinical signs of swine dysentery, Test Examples 8-9; type: in vivo; details: for Condition of feces: Table 9, individual pig
Description: This test was conducted under the conditions of so-called therapeutic administration. […] The method of infection was the same as in Test Example 5. […] Simultaneously with showing of the signs, the pigs were provided with a feed containing 50 ppm of lankacidin C. […] After 2 days, the viable count for the pathogen in feces was below the detection limit (10^2 CFU/g).
The condition of feces was rated at one of the following four classes:
.circle. normal; loose; diarrheal; .circleincircle. mucous and bloody
count is below the detection limit (10^2 CFU/g).
The symbol * indicates those days on which the feed containing 50 ppm of
lankacidin C was given.
Lankacidins were tested for therapeutic effects in swine dysentery under therapeutic conditions in the same manner as in Test Example 8. The effects were judged based on the condition of feces.
The condition of feces was rated at one of the following four classes;
The symbol * indicates the days on which the feed containing 50 ppm of th

[6] = strain 78/A, read-out: Minimum Inhibitory Concentration
[7] = strain CD1 (CD-1), read-out: Minimum Inhibitory Concentration
[8] = strain DJ70P1, read-out: Minimum Inhibitory Concentration
[9] = strain MK-2, read-out: Minimum Inhibitory Concentration
[10] = 10 ppm in feed, 21-day test period
[11] = 10 ppm in feed, 21 day period, mean per head

CC(=O)OC1C=CC(C)=CC(NC(=O)C(C)=O)C2(C)C(=O)OC(CC(O)C=CC(C)=CC1)C(C)C2=O (stereo not drawn) [Lankacidin C 8-acetate, lankacidin C 8-acetate]
MIC (Treponema hyodysenteriae [1]; [6]): 0.39 µg/mL (≈ 0.778 µM) | MIC (Treponema hyodysenteriae [1]; [7]): 0.39 µg/mL (≈ 0.778 µM) | MIC (Treponema hyodysenteriae [1]; [8]): 0.78 µg/mL (≈ 1.56 µM) | MIC (Treponema hyodysenteriae [1]; [9]): 0.39 µg/mL (≈ 0.778 µM) | Number of mice from which the pathogen was detected/number of mice tested (Treponema hyodysenteriae [2]): 0/5 | Number of mice with cecal lesions/number of mice tested (Treponema hyodysenteriae [2]): 0/5

CCC(=O)OC1C=CC(C)=CCC(O)C=CC(C)=CC(NC(=O)C(C)=O)C2(C)C(=O)OC(C1)C(C)C2=O (stereo not drawn) [Lankacidin C 14-propionate, lankacidin C 14-propionate]
MIC (Treponema hyodysenteriae [1]; [6]): 1.56 µg/mL (≈ 3.03 µM) | MIC (Treponema hyodysenteriae [1]; [7]): 3.13 µg/mL (≈ 6.07 µM) | MIC (Treponema hyodysenteriae [1]; [8]): 3.13 µg/mL (≈ 6.07 µM) | MIC (Treponema hyodysenteriae [1]; [9]): 1.56 µg/mL (≈ 3.03 µM) | LD50 ([3]; ip, intraperitoneal, read-out: intraperitoneal LD50): > 10000 mg/kg | LD50 ([3]; oral, read-out: oral LD50): > 10000 mg/kg | Number of mice from which the pathogen was detected/number of mice tested (Treponema hyodysenteriae [2]): 1/5 | Number of mice with cecal lesions/number of mice tested (Treponema hyodysenteriae [2]): 0/5 | Number of pigs from which the pathogen was detected, in colonic mucosa ([4]; 10 ppm in feed): 0 | Number of pigs from which the pathogen was detected, in feces ([4]; 10 ppm in feed): 0 | Number of pigs showing colonic lesions ([4]; 10 ppm in feed): 0 | Number of days on which diarrhea was observed [4, 10]: 0 days | Number of days on which mucous bloody stool was observed [4, 10]: 0 days | Number of pigs showing signs of infection/number of pigs used [4, 10]: 0/4 | Body weight gain [4, 11]: 562 grams/day | Feed conversion [4, 11]: 1.81 | Feed intake [4, 11]: 21.1 kg | Body weight at the time of completion of test ([4]; 10 ppm in feed, mean per head): 23.1 kg | effect against swine dysentery (in words) ([4]; pig, in vivo): distinctly effective against swine dysentery | therapeutic effect in swine dysentery (in words) ([5]; 50 ppm in feed): therapeutically effective | Condition of feces ([5]; 50 ppm in feed days 0-6, day 7): .circle. | Condition of feces ([5]; 50 ppm in feed days 0-6, day 8): .circle. | Condition of feces ([5]; 50 ppm in feed days 0-6, day 9): .circle. | Condition of feces ([5]; 50 ppm in feed days 0-6, day 10): .circle. | Condition of feces ([5]; 50 ppm in feed days 0-6, day 11): .circle. | Condition of feces ([5]; 50 ppm in feed days 0-6, day 12): .circle. | Condition of feces ([5]; 50 ppm in feed days 0-6, day 13): .circle. | Condition of feces ([5]; 50 ppm in feed days 0-6, day 14): .circle. | Condition of feces ([5]; 50 ppm in feed days 0-6, day 15): .circle. | Condition of feces ([5]; 50 ppm in feed days 0-6, day 16): .circle. | Condition of feces ([5]; 50 ppm in feed days 0-6, day 17): .circle. | Condition of feces ([5]; 50 ppm in feed days 0-6, day 18): .circle. | Condition of feces ([5]; 50 ppm in feed days 0-6, day 19): .circle. | Condition of feces ([5]; 50 ppm in feed days 0-6, day 20): .circle. | Condition of feces ([5]; 50 ppm in feed days 0-6, day 21): .circle. | Condition of feces ([5]; 50 ppm in feed, day 0 after manifestation of signs): .circleincircle. | Condition of feces ([5]; 50 ppm in feed, day 1): .circle. | Condition of feces ([5]; 50 ppm in feed, day 2): .circle. | Condition of feces ([5]; 50 ppm in feed, day 3): .circle. | Condition of feces ([5]; 50 ppm in feed, day 4): .circle. | Condition of feces ([5]; 50 ppm in feed, day 5): .circle. | Condition of feces ([5]; 50 ppm in feed, day 6): .circle.

CC(=O)OC1C=CC(C)=CCC(O)C=CC(C)=CC(NC(=O)C(C)O)C2(C)C(=O)OC(C1)C(C)C2=O (stereo not drawn) [Lankacidinol A, lankacidinol A]
MIC (Treponema hyodysenteriae [1]; [6]): 12.5 µg/mL (≈ 24.8 µM) | MIC (Treponema hyodysenteriae [1]; [7]): 25 µg/mL (≈ 49.6 µM) | MIC (Treponema hyodysenteriae [1]; [8]): 25 µg/mL (≈ 49.6 µM) | MIC (Treponema hyodysenteriae [1]; [9]): 25 µg/mL (≈ 49.6 µM) | Number of mice from which the pathogen was detected/number of mice tested (Treponema hyodysenteriae [2]): 1/5 | Number of mice with cecal lesions/number of mice tested (Treponema hyodysenteriae [2]): 0/5

CC1=CCC(O)C=CC(C)=CC(NC(=O)C(C)O)C2(C)C(=O)OC(CC(O)C=C1)C(C)C2=O (stereo not drawn) [Lankacidinol, lankacidinol]
MIC (Treponema hyodysenteriae [1]; read-out: Minimum Inhibitory Concentration, strain 78/A): 12.5 µg/mL (≈ 27.1 µM) | MIC (Treponema hyodysenteriae [1]; read-out: Minimum Inhibitory Concentration, strain CD1 (CD-1)): 12.5 µg/mL (≈ 27.1 µM) | MIC (Treponema hyodysenteriae [1]; read-out: Minimum Inhibitory Concentration, strain DJ70P1): 25 µg/mL (≈ 54.2 µM) | MIC (Treponema hyodysenteriae [1]; read-out: Minimum Inhibitory Concentration, strain MK-2): 25 µg/mL (≈ 54.2 µM) | Number of mice from which the pathogen was detected/number of mice tested (Treponema hyodysenteriae [2]): 0/5 | Number of mice with cecal lesions/number of mice tested (Treponema hyodysenteriae [2]): 0/5
